Experimental data published in US20080145313A1, “Compositions and Methods for the Treatment and Prevention of Neoplastic Disorders” (Genesis Research & Development Corporation Limited, priority 2006, published 2008).

These substances were tested on A549 cells (assay: Growth inhibition of siRNA-transfected A549 cells, SYBR Green I DNA content). Settings: 10 nM siRNA; DNA content 96 hours after transfection.
Format: cell-based, human
Protocol: A549 cells (human lung cancer cell line; ATCC No. CCL-185), SK-MeI-5 cells (human melanoma cell line; ATCC No. HTB-70), MCF-7 cells (human adenocarcinoma cell line; ATCC No. HTB-22), HCT-116 cells (colorectal carcinoma; ATCC CCL-247) and HCT-116 p53 null cells (derived from ATCC No. CCL-247; Bunz et al., Science 282:1497-1501, 1998) were cultured in RPMI 1640 medium with 10% v/v heat-inactivated fetal calf serum (FCS). Cells were seeded at a density of 5×10^4 cells/cm^2 in multi-well tissue culture plates. Sequences of Stealth™ siRNA duplexes (Invitrogen) targeting human ribonucleotide reductase subunit 1 (SEQ ID NO: 22) and subunit 2 (SEQ ID NO; 38) are given in SEQ ID NO: 4830-4832 (DNA), and SEQ ID NO: 5136-5138 (RNA) for RRM1, and SEQ ID NO: 5306-5308 (DNA), and SEQ ID NO: 5303-5305 (RNA) for RRM2. siRNAs were transfected at different concentrations into cells using Lipofectamine™ RNAiMAX transfection reagent (Invitrogen). Non-specific siRNA (SEQ ID NO: 4804 and 4805 (DNA), and SEQ ID NO: 5301 and 5302 (RNA)) were used as controls. The cellular DNA content was measured using a SYBR Green I-based fluorometric assay at 24, 48, 72 and 96 hours after transfection (120 hours for the MCF-7 cells), as follows. At the indicated time points following reverse transfection, cells were harvested and frozen at −80° C. overnight. Cells were thawed and cell lysis buffer (phosphate-buffered saline (PBS) containing 1% Triton X-100, pH 7) and SYBR Green I (1:10^5 V/V; Invitrogen) was added to the wells and incubated overnight in the dark at 4° C.
The following day, cell lysates were mixed thoroughly, and DNA fluorescence was measured with a Wallac Victor^2 plate reader (Turku, Finland) set at an excitation frequency of 485 nm and measuring emission at 535 nm.
To determine the duration of the knock-down effect of RRM1-targeting siRNA, A549 cells were reverse transfected with 1 or 10 nM RRM1-3 (SEQ ID NO: 4832 (DNA, and SEQ ID NO: 5138 (RNA)) or control siRNA (SEQ ID NO: 4804 (DNA), and SEQ ID NO: 5301 (RNA)), and growth followed over time. Growth inhibition was measured daily as described above for up to ten days. RRM1-3-mediated RRM1 silencing inhibited growth for at least 10 days post-transfection at both 1 and 10 nM (FIG. 11).
siRNA-mediated inhibition of cancer cell growth was determined in A549 cells as follows. A549 cells (human lung cancer cell line; ATCC No. CCL-185) were cultured in RPMI 1640 medium with 10% v/v heat-inactivated fetal calf serum. Cells were seeded at a density of 5×10^3 cells/cm^2 in multi-well tissue culture plates. Stealth™ siRNA duplexes (Invitrogen) targeting genes involved in cancer energy and metabolism pathways and listed in Table 9, were transfected at 10 nM into cells using Lipofectamine™ RNAiMAX transfection reagent (Invitrogen). Non-specific siRNA (SEQ ID NO: 4804 and 4805 (DNA), and SEQ ID NO: 5301 and 5302 (RNA)) were used as controls. The cellular DNA content was measured using a SYBR Green I-based fluorometric assay at 96 hours after transfection. The cells were harvested and frozen at −80° C. overnight. Cells were thawed and cell lysis buffer (phosphate-buffered saline (PBS) containing 1% Triton X-100, pH 7) and SYBR Green I (1:10^5 v/v; Invitrogen) was added to the wells and incubated overnight in the dark at 4° C. The following day, cell lysates were mixed thoroughly, and DNA fluorescence was measured with a Wallac Victor^2 plate reader (Turku, Finland) set at an excitation frequency of 485 nm and measuring emission at 535 nm.
Three different siRNAs were tested for each target gene. The average fluorescence units from three replicate wells, representing the amount of DNA per well, were used to determine the effect on growth inhibition. The results are given in Table 10 (energy and metabolism gene targets) and Table 11 (transporter gene targets).
siRNA-mediated RNAi was also determined on a panel of different cell lines. […]

Row | Substance | Growth Inhibition in A549 cells
1 | SEQ ID NO: 4857: siRNA targeting ACLY (chain 1 ATAGTTTGCCAGCTCGTTGACACCC; chain 2 AUAGUUUGCCAGCUCGUUGACACCC; Both strands are one antisense strand in DNA/RNA notation, chemistry not given here, further chemistry not given here; one strand in two spellings) | + (inhibits by at least 50%)
2 | SEQ ID NO: 4858: siRNA targeting ACLY (chain 1 TTCTTGATCAGCTTTCTCGTGAGGG; chain 2 UUCUUGAUCAGCUUUCUCGUGAGGG; Both strands are one antisense strand in DNA/RNA notation, chemistry not given here, further chemistry not given here; one strand in two spellings) | − (no growth inhibition with any siRNA)
3 | SEQ ID NO: 4859: siRNA targeting ACLY (chain 1 TACAGATGAACTTGTAAAGGAGTTC; chain 2 UACAGAUGAACUUGUAAAGGAGUUC; Both strands are one antisense strand in DNA/RNA notation, chemistry not given here, further chemistry not given here; one strand in two spellings) | − (no growth inhibition with any siRNA)
4 | SEQ ID NO: 4860: siRNA targeting SLC25A5 (ANT2) (chain 1 ATGCCAGATTCCCTGCAAAGTAGCG; chain 2 AUGCCAGAUUCCCUGCAAAGUAGCG; Both strands are one antisense strand in DNA/RNA notation, chemistry not given here, further chemistry not given here; one strand in two spellings) | + (inhibits by at least 50%)
5 | SEQ ID NO: 4861: siRNA targeting SLC25A5 (ANT2) (chain 1 ATTTGTAGATCTTAACCAGGCAGTC; chain 2 AUUUGUAGAUCUUAACCAGGCAGUC; Both strands are one antisense strand in DNA/RNA notation, chemistry not given here, further chemistry not given here; one strand in two spellings) | − (no growth inhibition with any siRNA)
6 | SEQ ID NO: 4862: siRNA targeting SLC25A5 (ANT2) (chain 1 AGAACATTGGACCATGCACCCTTGA; chain 2 AGAACAUUGGACCAUGCACCCUUGA; Both strands are one antisense strand in DNA/RNA notation, chemistry not given here, further chemistry not given here; one strand in two spellings) | − (no growth inhibition with any siRNA)
7 | SEQ ID NO: 4863: siRNA targeting SLC25A6 (ANT3) (chain 1 AAAGTACCTCCAGAACTGCGTGTGC; chain 2 AAAGUACCUCCAGAACUGCGUGUGC; Both strands are one antisense strand in DNA/RNA notation, chemistry not given here, further chemistry not given here; one strand in two spellings) | ++ (inhibits by at least 75%)
8 | SEQ ID NO: 4864: siRNA targeting SLC25A6 (ANT3) (chain 1 AAATCCAGCGGGTACACGAAGCAGA; chain 2 AAAUCCAGCGGGUACACGAAGCAGA; Both strands are one antisense strand in DNA/RNA notation, chemistry not given here, further chemistry not given here; one strand in two spellings) | − (no growth inhibition with any siRNA)
9 | SEQ ID NO: 4865: siRNA targeting SLC25A6 (ANT3) (chain 1 TTTGCGCCCGAACTGCATCATCATG; chain 2 UUUGCGCCCGAACUGCAUCAUCAUG; Both strands are one antisense strand in DNA/RNA notation, chemistry not given here, further chemistry not given here; one strand in two spellings) | − (no growth inhibition with any siRNA)
10 | SEQ ID NO: 4866: siRNA targeting UQCRC2 (chain 1 ACACCAAGTCCAATCAAAGCCATTC; chain 2 ACACCAAGUCCAAUCAAAGCCAUUC; Both strands are one antisense strand in DNA/RNA notation, chemistry not given here, further chemistry not given here; one strand in two spellings) | − (no growth inhibition with any siRNA)
11 | SEQ ID NO: 4867: siRNA targeting UQCRC2 (chain 1 AAATGCATTTGCCTCTGCACTTCCC; chain 2 AAAUGCAUUUGCCUCUGCACUUCCC; Both strands are one antisense strand in DNA/RNA notation, chemistry not given here, further chemistry not given here; one strand in two spellings) | − (no growth inhibition with any siRNA)
12 | SEQ ID NO: 4868: siRNA targeting UQCRC2 (chain 1 TTGCGGTCACACTTAATTTGCCACC; chain 2 UUGCGGUCACACUUAAUUUGCCACC; Both strands are one antisense strand in DNA/RNA notation, chemistry not given here, further chemistry not given here; one strand in two spellings) | + (inhibits by at least 50%)
13 | SEQ ID NO: 4872: siRNA targeting RRM2B (chain 1 TTTGACAGCATCAACAATGATCTCC; chain 2 UUUGACAGCAUCAACAAUGAUCUCC; Both strands are one antisense strand in DNA/RNA notation, chemistry not given here, further chemistry not given here; one strand in two spellings) | − (no growth inhibition with any siRNA)
14 | SEQ ID NO: 4873: siRNA targeting RRM2B (chain 1 TTTACTAAGTATTGGAACATCAGGC; chain 2 UUUACUAAGUAUUGGAACAUCAGGC; Both strands are one antisense strand in DNA/RNA notation, chemistry not given here, further chemistry not given here; one strand in two spellings) | − (no growth inhibition with any siRNA)
15 | SEQ ID NO: 4874: siRNA targeting RRM2B (chain 1 TATCTGTGGTTTCTGCCATAACTGC; chain 2 UAUCUGUGGUUUCUGCCAUAACUGC; Both strands are one antisense strand in DNA/RNA notation, chemistry not given here, further chemistry not given here; one strand in two spellings) | − (no growth inhibition with any siRNA)

Same assay, conditions: 10 nM siRNA; up to 120 hours post-transfection (FIG. 8)

Row | Substance | growth inhibition, A549
16 | SEQ ID NO: 4872: siRNA targeting RRM2B (chain 1 TTTGACAGCATCAACAATGATCTCC; chain 2 UUUGACAGCAUCAACAAUGAUCUCC; Both strands are one antisense strand in DNA/RNA notation, chemistry not given here, further chemistry not given here; one strand in two spellings) | No inhibition of growth
17 | SEQ ID NO: 4873: siRNA targeting RRM2B (chain 1 TTTACTAAGTATTGGAACATCAGGC; chain 2 UUUACUAAGUAUUGGAACAUCAGGC; Both strands are one antisense strand in DNA/RNA notation, chemistry not given here, further chemistry not given here; one strand in two spellings) | No inhibition of growth
